Data: ChEMBL document CHEMBL4725405, “Synthesis and evaluation of 17α-triazolyl and 9α-cyano derivatives of estradiol” (Bioorg Med Chem, 2020)

Key:
[1] = biological target: T1, Estrogen receptor (Homo sapiens, UniProt P03372)
T1 sequence (P03372 whole entry): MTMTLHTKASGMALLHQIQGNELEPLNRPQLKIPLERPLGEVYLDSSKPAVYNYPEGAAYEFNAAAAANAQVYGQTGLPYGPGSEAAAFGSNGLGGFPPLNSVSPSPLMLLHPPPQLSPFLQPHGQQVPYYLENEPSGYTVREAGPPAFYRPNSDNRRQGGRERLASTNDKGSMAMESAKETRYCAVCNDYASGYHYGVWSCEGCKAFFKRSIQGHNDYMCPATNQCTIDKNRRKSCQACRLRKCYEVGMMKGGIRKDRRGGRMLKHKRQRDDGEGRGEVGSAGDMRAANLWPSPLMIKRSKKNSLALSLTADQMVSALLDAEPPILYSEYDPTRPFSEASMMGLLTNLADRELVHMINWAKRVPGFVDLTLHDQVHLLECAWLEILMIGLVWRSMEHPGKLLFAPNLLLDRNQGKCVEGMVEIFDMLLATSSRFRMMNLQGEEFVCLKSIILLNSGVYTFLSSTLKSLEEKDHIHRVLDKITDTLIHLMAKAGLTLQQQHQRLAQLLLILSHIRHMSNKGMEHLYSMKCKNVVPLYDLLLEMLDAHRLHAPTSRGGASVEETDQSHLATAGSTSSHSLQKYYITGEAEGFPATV

[2] = biological target: T1, Estrogen receptor; remark: listed apart in the source
Description: Antagonist activity at full length human ERalpha receptor assessed as inhibition of estradiol-induced activation incubated for 22 to 24 hrs by cell based luciferase reporter gene assay

[3] = biological target: T2, Estrogen receptor beta (Homo sapiens, UniProt Q92731)
[4] = biological target: T2, Estrogen receptor beta; remark: listed apart in the source
Description: Antagonist activity at full length human ERbeta receptor assessed as inhibition of estradiol-induced activation incubated for 22 to 24 hrs by cell based luciferase reporter gene assay

[5] = biological target: T2, Estrogen receptor beta; remark: listed apart in the source
Description: Agonist activity at full length human ERbeta receptor assessed as transcriptional activity incubated for 22 to 24 hrs by cell based luciferase reporter gene assay

[6] = biological target: T2, Estrogen receptor beta; test: Displacement of fluormone from GST-tagged ERbeta receptor LBD (unknown origin) measured after 60 mins by TR-FRET competitive binding assay relative to control; settings: filed as agonist
[7] = biological target: T3, Estrogen receptor (Homo sapiens) (UniProt P03372); test: Agonist activity at full length human ERalpha receptor assessed as transcriptional activity incubated for 22 to 24 hrs by cell based luciferase reporter gene assay relative to control; settings: filed as agonist
T3 sequence (whole entry): T1 sequence (P03372 whole entry)

T2 sequence (Q92731 whole entry): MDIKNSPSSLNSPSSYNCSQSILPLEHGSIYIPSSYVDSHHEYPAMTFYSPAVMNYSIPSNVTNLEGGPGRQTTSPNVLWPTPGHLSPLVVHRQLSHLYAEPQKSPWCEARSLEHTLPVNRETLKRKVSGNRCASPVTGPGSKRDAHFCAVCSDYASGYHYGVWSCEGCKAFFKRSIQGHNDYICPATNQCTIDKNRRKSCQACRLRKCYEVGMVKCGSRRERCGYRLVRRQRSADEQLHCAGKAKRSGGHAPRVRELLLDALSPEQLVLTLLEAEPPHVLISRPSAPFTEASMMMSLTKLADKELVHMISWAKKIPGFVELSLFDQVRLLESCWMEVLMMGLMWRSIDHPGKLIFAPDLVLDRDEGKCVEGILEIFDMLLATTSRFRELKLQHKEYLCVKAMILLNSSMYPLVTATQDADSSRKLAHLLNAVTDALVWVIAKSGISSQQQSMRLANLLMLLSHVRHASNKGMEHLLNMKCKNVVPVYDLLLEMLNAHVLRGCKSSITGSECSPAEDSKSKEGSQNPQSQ

## C[C@]12CC[C@@H]3c4ccc(O)cc4CC[C@H]3[C@@H]1CC[C@@]2(O)c1cn(-c2ccccc2)nn1
[1]
  EC50: 5 nM
[2]
  EC50: > 1000 nM

## C[C@]12CC[C@]3(C#N)c4ccc(O)cc4CC[C@H]3[C@@H]1CCC2=O
[3]
  EC50: 78 nM
[1]
  EC50: 88 nM
[2]
  EC50: > 10000 nM
[4]
  EC50: > 5000 nM
[5]
  EC50: 9 nM

## C[C@]12CC[C@@H]3c4ccc(O)cc4CC[C@H]3[C@@H]1CC[C@@]2(O)c1cn(-c2cccc(O)c2)nn1
[6]
  Activity: 60%
[7]
  Activity: 46%
[3]
  EC50: 12 nM
[1]
  EC50: 68 nM
[2]
  EC50: > 1000 nM
[4]
  EC50: > 10000 nM
[5]
  EC50: 21 nM

## C[C@]12CC[C@@H]3c4ccc(O)cc4CC[C@H]3[C@@H]1CC[C@@]2(O)c1cn(CCO)nn1
[3]
  EC50: 50 nM
[1]
  EC50: 149 nM
[2]
  EC50: > 10000 nM
[4]
  EC50: > 10000 nM
[5]
  EC50: 16 nM

## C[C@]12CC[C@]3(C#N)c4ccc(O)cc4CC[C@H]3[C@@H]1CC[C@@]2(O)c1cn(CCO)nn1
[3]
  EC50: 4400 nM

## C#C[C@]1(O)CC[C@H]2[C@@H]3CCc4cc(O)ccc4[C@@]3(C#N)CC[C@@]21C
[3]
  EC50: 51 nM
[1]
  EC50: 22 nM
[2]
  EC50: > 10000 nM
[4]
  EC50: > 10000 nM
[5]
  EC50: 14 nM

## C[C@]12CC[C@]3(C#N)c4ccc(O)cc4CC[C@H]3[C@@H]1CC[C@@H]2O
[3]
  EC50: 0.27 nM
[1]
  EC50: 0.38 nM
[2]
  EC50: > 5000 nM
[4]
  EC50: > 25 nM
[5]
  EC50: 0.029 nM

## C[C@]12CC[C@@H]3c4ccc(O)cc4CC[C@H]3[C@@H]1CC[C@@]2(O)c1cn(-c2ccc(O)cc2)nn1
[3]
  EC50: 0.65 nM
[1]
  EC50: 0.87 nM
[2]
  EC50: > 10000 nM
[4]
  EC50: > 10000 nM
[5]
  EC50: 0.81 nM
